From US11654136B2, “Phosphoinositide 3-kinase inhibitor with a zinc binding moiety” (Curis, Inc., priority 2011, dated 2023)

What was measured:
MM1S human MM xenograft = assay: Combination with lenalidomide in the MM1S xenograft model; format: in vivo, SCID/Beige mice; details: 75 mg/Kg PO Qd (Mon-Fri); 17 days; single agent
Protocol: Female SCID/Beige mice at age 4 weeks were housed in ventilated micro-isolator cages (INNOCAGE®IVC, Innovive Inc., San Diego, Calif.) in a controlled climate, fed with sterile high-fat diet (Problab-RMH 2000) ad libitum and provided with sterilized water. All housing and supplies for SCID/Beige mice were sterilized by autoclaving before use. Mice were inspected daily including weekends/holidays by trained animal facility personnel and investigators. All animal procedures were performed under sterile conditions within a biosafety cabinet (for injections) or laminar flow hood (for animal husbandry and non-invasive procedures).
Cryopreserved MM1S human MM cells were thawed in a 37° C. water bath and cultured in RPMI medium plus 10% Fetal Bovine Serum (FBS) in a tissue culture incubator at 5% CO2. […] The implanted mice were monitored for general health and tumor development daily.
Tumors were detectable about two weeks following implantation. Tumor size was measured with a caliper. […]
During each animal study, tumors were measured with calipers, tumor size determined using the above mentioned formula, and tumor size changes in percentage calculated. Mouse body weights were measured with a scale twice per week. […] T/C values were calculated using the following formula: % T/C=100×ΔT/ΔC if ΔT>0. […]

[1] = Pharmacokinetic study in dogs; format: in vivo; details: beagle dogs
Description: FIG. 4 is a graph of plasma concentration versus time for both oral and iv dosing.

[2] = Pharmacokinetic study in rats; format: in vivo; details: rat, single oral gavage 20 mg/kg, male Sprague-Dawley rats, plasma
Protocol: The resulting clear yellow solution was stored at room temperature until picked up for dosing.
Three male Sprague-Dawley rats from Charles River Laboratories were used in this study. High fat diet (VHFD, D12492i) from Research Diets Inc. were provided ad libitum throughout the in-life portion of the study.
Blood samples (approximate volume 150 μL) were collected tail vein at 0.25, 0.5, 1, 3, 6, and 24 hours postdose. Blood samples were placed into tubes containing sodium heparin and centrifuged at 8000 rpm for 6 minutes at 4° C. to separate plasma from the samples. Following centrifugation, the resulting plasma was transferred to clean tubes and stored frozen at −80° C. pending bioanalysis.
The pharmacokinetic parameters were determined from mean concentration-time data in the test subjects. A compartmental modeling of WINNONILIN® Professional 5.2. was used to calculate parameters. Any concentrations that were below the limit of quantitation (lower limit of quantitation=1 ng/mL) were omitted from the calculation of parameters in individual animals.

SMILES: COc1ccc(-c2nc(N3CCOCC3)c3sc(CN(C)c4ncc(C(=O)NO)cn4)cc3n2)cn1 [Compound 1, N-hydroxy-2-(((2-(6-methoxypyridin-3-yl)-4-morpholinothieno[3,2-d]pyrimidin-6-yl)methyl)(methyl)amino)pyrimidine-5-carboxamide]
- Tumor growth (MM1S human MM xenograft): more effective than Lenalidomide at either 12.5 or 25 mg/Kg PO as single agents
- Area under the Curve ([1]; IV 5 mg/kg, plasma): 2977.47 ng/mL * hr
- Half-life ([1]; IV 5 mg/kg, plasma): 1.85 h
- Area under the Curve ([1]; PO Capsule 5 mg/kg, plasma): 450.4 ng/mL * hr
- Half-life ([1]; PO Capsule 5 mg/kg, plasma): 4.88 h
- bioavailability ([1]; dog, plasma, PO Capsule 5 mg/kg): 15.1%
- Cmax ([1]; dog, IV 5 mg/kg, plasma): 6160 ng/mL
- Cmax ([1]; dog, PO Capsule 5 mg/kg, plasma): 312 ng/mL
- Plasma levels after oral dosing ([1]; oral 5 mg/kg in enteric capsules): Significant plasma levels
- AUC(0-inf) [2]: 164 ng·h/mL
- Cmax [2]: 39.5 ng/mL
- Tmax [2]: 6 min
- Half-life ([2]; read-out: half-life (T1/2) (converted)): 11.7 h
